Several values for one entry are separate records, joined by “and”; a condition that tells them apart may be missing. Equal entries are not always repeated.
Columns and labels:
[1] = disclosed by Struck et al. (1966); cited from earlier work
B16 melanoma = experiment: in vivo ip B16 melanoma assay; design: species or system mouse
Description: In this system, groups of eight B6D2F1 mice are inoculated ip with 0.5 ml of a 10% (w:v) brei of […] prepared from pooled sc tumors excised at 14-21 days from […] donor mice. Daily treatment is begun 24 hours after tumor implantation and is continued daily for ten (10) days. The route of drug administration is ip. The mice are monitored daily for survival for sixty (60) days. Antitumor activity is assessed by prolongation of median survival time. An ILS of ≥25% indicates activity in this tumor model.

[2] = tested on: M5076 reticulum cell sarcoma; experiment: ip implanted M5076 reticulum cell sarcoma tumor model in mice; type: in vivo, mouse
Description: Another chemosensitive tumor model is intraperitoneally (ip) implanted M5076 reticulum cell sarocma in mice. In this system B6D2F female mice are inoculated with 0.5 ml of a 10 percent (w:v) brei of M5076 prepared from pooled subcutaneous (sc) tumors excised at about 21 days from C57B1/6 donors. Drugs are administered ip. Daily treatment is begun 24 hours after implantation and is continued for ten days. The treatment regimen for M5076 is more prolonged than for P388 because of the slower growth rate and longer control survival time of the M5076 tumor. A drug is considered active in this tumor model if it produces ≥25% ILS.

[3] = tested on: P388 lymphocytic leukemia; experiment: in vivo ip P388 leukemia mouse model
Excerpt: P388 lymphocytic leukemia is currently the most widely used animal tumor model for screening for antitumor agents and for detailed evaluation of active compounds. This tumor system is widely accepted as an antitumor agent screening tool because it is sensitive to virtually all of the clinically active antineoplastic agents; quantitative and reproducible; amenable for large-scale screening; and predictive for activity in other animal tumor models.
10^6 P388 leukemia cells are inoculated ip in B6D2F1 mice. Twenty-four hours later, if the tumor inoculum proves to be free of bacterial contamination (as determined by 24 hours incubation in thioglycollate broth), animals are randomized into groups of 6 and housed in shoebox cages. The compound to be evaluated is dissolved in a minimal volume of N,N-dimethylacetamide (DMA). An equal volume of saline is added; if the drug comes out of solution an equal volume of polyethoxylated castor oil is added and then saline qs to a concentration such that the desired dose is delivered in 0.5 ml. The final concentration of DMA and polyethoxylated castor oil is 10 percent. Dilutions for lower doses are made with saline so there is a decreasing proportion of organic solvents in the vehicle with decreasing dosage. This vehicle provides a soluble formulation. […] Animals are monitored daily for mortality and experiments are terminated after 45 days. […]

Structure (SMILES)	cytotoxic activity [1]	MTD (maximally tolerated dose) (B16 melanoma; B6D2F1 mice, ip qD × 10 regimen) [mg/kg]	ILS, maximum increase in lifespan (B16 melanoma; mice bearing ip B16 melanoma, ip daily for ten days) [%]	MTD (maximally tolerated dose) ([2]; B6D2F female mice, ip qD × 10 regimen) [mg/kg]	ILS (MAX), maximum increase in lifespan ([2]; mice bearing ip M5076 reticulum cell sarcoma, ip daily for ten days) [%]	MTD (maximally tolerated dose) ([3]; B62DF female mice, ip qDX5 regimen) [mg/kg]	ILS (max), maximum increase in lifespan ([3]; mice bearing ip P388 leukemia, ip Days 1 through 5, figures separated by slashes are from separate experiments)
c1ccc(P(CCP(c2ccccc2)c2ccccc2)c2ccccc2)cc1 [1,2-bis(diphenylphosphino)ethane]	cytotoxic activity	–	–	–	–	–	–
[Cl][Au].c1ccc(P(CCP(CCP(c2ccccc2)c2ccccc2)c2ccccc2)CCP(c2ccccc2)c2ccccc2)cc1 (stereo not shown) [Compound 1, Chloro[1,1,4,7,10,10-hexaphenyl-1,4,7,10-tetraphosphodecane-P^1, P^4, P^7, P^10] gold(I)]	–	2	37	2	38	3	40% and 65%
